These results are taken from patent US20050038074A1, “Mitotic kinesin inhibitors” (priority 2003, published 2005).

pIC50: −log10 of the molar value.

The experiment concerns the target T1, human KSP motor domain (KSP(367H)) (Homo sapiens, UniProt P52732).
T1 construct: were used to amplify the motor domain and the neck linker region; made in house; host or cells: E. coli BL21 (DE3)
T1 sequence (P52732 18-359 limits assumed): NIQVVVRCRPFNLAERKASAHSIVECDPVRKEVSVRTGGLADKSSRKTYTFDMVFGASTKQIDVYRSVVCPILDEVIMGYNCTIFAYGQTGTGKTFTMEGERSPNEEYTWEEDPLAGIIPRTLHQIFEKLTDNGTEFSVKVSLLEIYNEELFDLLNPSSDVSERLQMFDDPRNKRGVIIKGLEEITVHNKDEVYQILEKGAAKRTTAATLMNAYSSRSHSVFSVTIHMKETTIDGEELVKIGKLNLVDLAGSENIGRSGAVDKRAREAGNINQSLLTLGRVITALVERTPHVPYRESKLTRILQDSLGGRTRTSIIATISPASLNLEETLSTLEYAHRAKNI
In words: Kinesin ATPase In Vitro Assay. The class given is biochemical. The following applies: kinesin motor domain with microtubules, 1 mM ATP, 23° C.; free phosphate by quinaldine red/ammonium molybdate. The text has this:
I. Kinesin ATPase In Vitro Assay
Cloning and Expression of Human Poly-Histidine Tagged KSP Motor Domain (KSP(367H))
Plasmids for the expression of the human KSP motor domain construct were cloned by PCR using a pBluescript full length human KSP construct (Blangy et al., Cell, vol.83, pp1159-1169, 1995) as a template. The N-terminal primer 5′-[…] (SEQ.ID.NO.: 1) and the C-terminal primer 5′-[…] […] (SEQ.ID.NO.: 2) were used to amplify the motor domain and the neck linker region. The PCR products were digested with AseI and XhoI, ligated into the NdeI/XhoI digestion product of pRSETa (Invitrogen) and transformed into E. coli BL21 (DE3).
Cells were grown at 37° C. to an OD600 of 0.5. After cooling the culture to room temperature expression of KSP was induced with 100 μM IPTG and incubation was continued overnight. Cells were pelleted by centrifugation and washed once with ice-cold PBS. Pellets were flash-frozen and stored −80° C.
Cell pellets were thawed on ice and resuspended in lysis buffer (50 mM K-HEPES, pH 8.0, 250 mM KCl, 0.1% Tween, 10 mM imidazole, 0.5 mM Mg-ATP, 1 mM PMSF, 2 mM benzimidine, 1× complete protease inhibitor cocktail (Roche)). Cell suspensions were incubated with 1 mg/ml lysozyme and 5 mM β-mercaptoethanol on ice for 10 minutes, followed by sonication (3×30 sec). All subsequent procedures were performed at 4° C. Lysates were centrifuged at 40,000×g for 40 minutes. Supernatants were diluted and loaded onto an SP Sepharose column (Pharmacia, 5 ml cartridge) in buffer A (50 mM K-HEPES, pH 6.8, 1 mM MgCl2, 1 mM EGTA, 10 μM Mg-ATP, 1 mM DTT) and eluted with a 0 to 750 mM KCl gradient in buffer A. Fractions containing KSP were pooled and incubated with Ni-NTA resin (Qiagen) for one hour. The resin was washed three times with buffer B (Lysis buffer minus PMSF and protease inhibitor cocktail), followed by three 15-minute incubations and washes with buffer B. Finally, the resin was incubated and washed for 15 minutes three times with buffer C (same as buffer B except for pH 6.0) and poured into a column. KSP was eluted with elution buffer (identical to buffer B except for 150 mM KCl and 250 mM imidazole). KSP-containing fractions were pooled, made 10% in sucrose, and stored at −80° C.
Microtubules are prepared from tubulin isolated from bovine brain. Purified tubulin (>97% MAP-free) at 1 mg/ml is polymerized at 37° C. in the presence of 10 JAM paclitaxel, 1 mM DTT, 1 mM GTP in BRB80 buffer (80 mM K-PIPES, 1 mM EGTA, 1 mM MgCl2 at pH 6.8). The resulting microtubules are separated from non-polymerized tubulin by ultracentrifugation and removal of the supernatant. The pellet, containing the microtubules, is gently resuspended in 10 μM paclitaxel, 1 mM DTT, 50 μg/ml ampicillin, and 5 μg/ml chloramphenicol in BRB80.
The kinesin motor domain is incubated with microtubules, 1 mM ATP (1:1 MgCl2: Na-ATP), and compound at 23° C. in buffer containing 80 mM K-HEPES (pH 7.0), 1 mM EGTA, 1 mM DTT, 1 mM MgCl2, and 50 mM KCl. The reaction is terminated by a 2-10 fold dilution with a final buffer composition of 80 mM HEPES and 50 mM EDTA. Free phosphate from the ATP hydrolysis reaction is measured via a quinaldine red/ammonium molybdate assay by adding 150 μl of quench C buffer containing a 2:1 ratio of quench A:quench B. Quench A contains 0.1 mg/mil quinaldine red and 0.14% polyvinyl alcohol; quench B contains 12.3 mM ammonium molybdate tetrahydrate in 1.15 M sulfuric acid. The reaction is incubated for 10 minutes at 23° C., and the absorbance of the phospho-molybdate complex is measured at 540 nm.
For the compound `CN(C(=O)N1CC(c2cc(F)ccc2F)=C[C@@]1(CO)c1ccccc1)C1CCNCC1F` (stereo in doubt) [Compound 10-2, (2S)-4-(2,5-Difluorophenyl)-N-[(3S,4R)-3-fluoropiperidin-4-yl]-2-(hydroxymethyl)-N-methyl-2-phenyl-2,5-dihydro-1H-pyrrole-1-carboxamide], the pIC50 is no less than 4.30.
`CN(C(=O)N1CC(c2cc(F)ccc2F)=C[C@@]1(CO)c1ccccc1)[C@H]1CCNC[C@@H]1F` [Compound 12-3, (2S)-4-(2,5-Difluorophenyl)-N-[(3S,4S)-3-fluoropiperidin-4-yl]-2-(hydroxymethyl)-N-methyl-2-phenyl-2,5-dihydro-1H-pyrrole-1-carboxamide]: the pIC50 is no less than 4.30.
The compound `CN1CC[C@H](N(C)C(=O)N2CC(c3cc(F)ccc3F)=C[C@@]2(CO)c2ccccc2)[C@H](F)C1` [Compound 3-1, (2S)-4-(2,5-Difluorophenyl)-N-[(3R,4S)-3-fluoro-1-methylpiperidin-4-yl]-2-(hydroxymethyl)-N-methyl-2-phenyl-2,5-dihydro-1H-pyrrole-1-carboxamide] showed a pIC50 of no less than 4.30.
Compound `CN(C(=O)N1CC(c2cc(F)ccc2F)=C[C@@]1(CO)c1ccccc1)[C@H]1CC[N+](C)([O-])C[C@H]1F` (stereo partly drawn) [Compound 9-1, (2S)-4-(2,5-Difluorophenyl)-N-[(3R,4S)-3-fluoro-1-methyl-1-oxidopiperidin-4-yl]-2-(hydroxymethyl)-N-methyl-2-phenyl-2,5-dihydro-1H-pyrrole-1-carboxamide] gave a pIC50 of no less than 4.30.
In turn, `CN(C(=O)N1CC(c2cc(F)ccc2F)=C[C@@]1(CO)c1ccccc1)[C@@H]1CCNC[C@H]1F` [Compound 12-2, (2S)-4-(2,5-Difluorophenyl)-N-[(3R,4R)-3-fluoropiperidin-4-yl]-2-(hydroxymethyl)-N-methyl-2-phenyl-2,5-dihydro-1H-pyrrole-1-carboxamide] showed a pIC50 of no less than 4.30.
In the case of `CN1CC[C@@H](N(C)C(=O)N2CC(c3cc(F)ccc3F)=C[C@H]2c2ccccc2)[C@H](F)C1` [Compound 7-3, (2S)-4-(2,5-Difluorophenyl)-N-[(3R,4R)-3-fluoro-1-methylpiperidin-4-yl]-N-methyl-2-phenyl-2,5-dihydro-1H-pyrrole-1-carboxamide], the pIC50 was no less than 4.30.
In turn, `CN1CC[C@@H](N(C)C(=O)N2CC(c3cc(F)ccc3F)=C[C@H]2c2ccccc2)[C@@H](F)C1` [Compound 7-2, (2S)-4-(2,5-Difluorophenyl)-N-[(3S,4R)-3-fluoro-1-methylpiperidin-4-yl]-N-methyl-2-phenyl-2,5-dihydro-1H-pyrrole-1-carboxamide] showed a pIC50 of no less than 4.30.
For the compound `CN(C(=O)N1CC(c2cc(F)ccc2F)=C[C@@]1(CO)c1ccccc1)[C@@H]1CCNC[C@@H]1F` [Compound 12-1, (2S)-4-(2,5-Difluorophenyl)-N-[(3S,4R)-3-fluoropiperidin-4-yl]-2-(hydroxymethyl)-N-methyl-2-phenyl-2,5-dihydro-1H-pyrrole-1-carboxamide], the pIC50 is no less than 4.30.
`CN1CC[C@H](N(C)C(=O)N2CC(c3cc(F)ccc3F)=C[C@H]2c2ccccc2)[C@H](F)C1` [Compound 7-1, (2S)-4-(2,5-Difluorophenyl)-N-[(3R,4S)-3-fluoro-1-methylpiperidin-4-yl]-N-methyl-2-phenyl-2,5-dihydro-1H-pyrrole-1-carboxamide] showed a pIC50 of no less than 4.30.
For the compound `CN1CC[C@@H](N(C)C(=O)N2CC(c3cc(F)ccc3F)=C[C@@]2(CO)c2ccccc2)[C@H](F)C1` (single isomer, unassigned) [Compound 5-3], the negative logarithm of the IC50 (pIC50) is no less than 4.30.
With `CC(C)N1CC[C@H](N(C)C(=O)N2CC(c3cc(F)ccc3F)=C[C@@]2(CO)c2ccccc2)[C@H](F)C1` [Compound 11-1, (2S)-4-(2,5-Difluorophenyl)-N-[(3R,4S)-3-fluoro-1-isopropylpiperidin-4-yl]-2-(hydroxymethyl)-N-methyl-2-phenyl-2,5-dihydro-1H-pyrrole-1-carboxamide], the pIC50 is no less than 4.30.
Compound `CN1CC[C@@H](N(C)C(=O)N2CC(c3cc(F)ccc3F)=C[C@@]2(CO)c2ccccc2)[C@@H](F)C1` [Compound 4-2, (2S)-4-(2,5-Difluorophenyl)-N-[(3S,4R)-3-fluoro-1-methylpiperidin-4-yl]-2-(hydroxymethyl)-N-methyl-2-phenyl-2,5-dihydro-1H-pyrrole-1-carboxamide] had a pIC50 of no less than 4.30.

In general, pIC50 refers to the negative decadic logarithm of the IC50, by convention in mol/L. Low values mean a large IC50, high ones a small IC50.
